The structures appear in SMILES notation. Where two headings read alike, the source gives them in different places.

The target of one experiment is T1, BRPF1 (Homo sapiens, UniProt P55201).
T1 sequence (P55201 1-1214): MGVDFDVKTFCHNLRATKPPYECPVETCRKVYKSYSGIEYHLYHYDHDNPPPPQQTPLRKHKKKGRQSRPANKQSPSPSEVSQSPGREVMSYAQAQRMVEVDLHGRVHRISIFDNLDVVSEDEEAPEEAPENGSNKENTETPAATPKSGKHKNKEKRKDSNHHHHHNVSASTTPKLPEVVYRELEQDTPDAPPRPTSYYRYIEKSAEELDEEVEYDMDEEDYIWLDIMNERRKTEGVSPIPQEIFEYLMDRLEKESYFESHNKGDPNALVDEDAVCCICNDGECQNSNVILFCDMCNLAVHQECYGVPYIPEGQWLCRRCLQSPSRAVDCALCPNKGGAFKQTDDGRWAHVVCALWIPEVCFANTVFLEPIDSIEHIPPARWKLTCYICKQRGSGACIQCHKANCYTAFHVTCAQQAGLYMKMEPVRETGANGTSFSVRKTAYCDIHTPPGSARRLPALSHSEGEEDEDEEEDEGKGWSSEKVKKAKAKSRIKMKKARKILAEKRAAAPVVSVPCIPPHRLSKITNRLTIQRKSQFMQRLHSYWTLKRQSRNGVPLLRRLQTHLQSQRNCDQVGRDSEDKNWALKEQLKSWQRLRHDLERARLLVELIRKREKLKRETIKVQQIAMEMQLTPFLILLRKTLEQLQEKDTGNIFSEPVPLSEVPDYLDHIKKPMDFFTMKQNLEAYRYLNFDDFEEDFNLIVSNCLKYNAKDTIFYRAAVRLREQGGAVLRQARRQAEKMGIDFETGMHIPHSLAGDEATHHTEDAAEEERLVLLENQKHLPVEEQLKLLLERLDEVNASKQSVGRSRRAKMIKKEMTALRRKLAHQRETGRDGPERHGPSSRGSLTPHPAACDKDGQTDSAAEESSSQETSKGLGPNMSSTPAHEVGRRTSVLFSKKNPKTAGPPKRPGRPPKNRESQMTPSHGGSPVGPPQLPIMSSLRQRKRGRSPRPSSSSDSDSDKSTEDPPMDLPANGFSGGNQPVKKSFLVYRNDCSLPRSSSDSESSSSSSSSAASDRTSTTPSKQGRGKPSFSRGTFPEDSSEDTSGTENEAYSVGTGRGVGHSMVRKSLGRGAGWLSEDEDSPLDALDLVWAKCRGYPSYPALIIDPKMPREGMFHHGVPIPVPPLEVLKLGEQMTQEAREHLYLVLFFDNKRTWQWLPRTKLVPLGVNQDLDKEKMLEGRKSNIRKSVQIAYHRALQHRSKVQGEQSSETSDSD
The experiment can be described thus: biochemical. Further details: Thermal shift (DSF, SYPRO Orange) Tm shift of recombinant kinase domains at 10 uM compound.

Another experiment concerns the target T2, MAP3K5 (Homo sapiens, UniProt Q99683).
T2 sequence (Q99683 1-1374): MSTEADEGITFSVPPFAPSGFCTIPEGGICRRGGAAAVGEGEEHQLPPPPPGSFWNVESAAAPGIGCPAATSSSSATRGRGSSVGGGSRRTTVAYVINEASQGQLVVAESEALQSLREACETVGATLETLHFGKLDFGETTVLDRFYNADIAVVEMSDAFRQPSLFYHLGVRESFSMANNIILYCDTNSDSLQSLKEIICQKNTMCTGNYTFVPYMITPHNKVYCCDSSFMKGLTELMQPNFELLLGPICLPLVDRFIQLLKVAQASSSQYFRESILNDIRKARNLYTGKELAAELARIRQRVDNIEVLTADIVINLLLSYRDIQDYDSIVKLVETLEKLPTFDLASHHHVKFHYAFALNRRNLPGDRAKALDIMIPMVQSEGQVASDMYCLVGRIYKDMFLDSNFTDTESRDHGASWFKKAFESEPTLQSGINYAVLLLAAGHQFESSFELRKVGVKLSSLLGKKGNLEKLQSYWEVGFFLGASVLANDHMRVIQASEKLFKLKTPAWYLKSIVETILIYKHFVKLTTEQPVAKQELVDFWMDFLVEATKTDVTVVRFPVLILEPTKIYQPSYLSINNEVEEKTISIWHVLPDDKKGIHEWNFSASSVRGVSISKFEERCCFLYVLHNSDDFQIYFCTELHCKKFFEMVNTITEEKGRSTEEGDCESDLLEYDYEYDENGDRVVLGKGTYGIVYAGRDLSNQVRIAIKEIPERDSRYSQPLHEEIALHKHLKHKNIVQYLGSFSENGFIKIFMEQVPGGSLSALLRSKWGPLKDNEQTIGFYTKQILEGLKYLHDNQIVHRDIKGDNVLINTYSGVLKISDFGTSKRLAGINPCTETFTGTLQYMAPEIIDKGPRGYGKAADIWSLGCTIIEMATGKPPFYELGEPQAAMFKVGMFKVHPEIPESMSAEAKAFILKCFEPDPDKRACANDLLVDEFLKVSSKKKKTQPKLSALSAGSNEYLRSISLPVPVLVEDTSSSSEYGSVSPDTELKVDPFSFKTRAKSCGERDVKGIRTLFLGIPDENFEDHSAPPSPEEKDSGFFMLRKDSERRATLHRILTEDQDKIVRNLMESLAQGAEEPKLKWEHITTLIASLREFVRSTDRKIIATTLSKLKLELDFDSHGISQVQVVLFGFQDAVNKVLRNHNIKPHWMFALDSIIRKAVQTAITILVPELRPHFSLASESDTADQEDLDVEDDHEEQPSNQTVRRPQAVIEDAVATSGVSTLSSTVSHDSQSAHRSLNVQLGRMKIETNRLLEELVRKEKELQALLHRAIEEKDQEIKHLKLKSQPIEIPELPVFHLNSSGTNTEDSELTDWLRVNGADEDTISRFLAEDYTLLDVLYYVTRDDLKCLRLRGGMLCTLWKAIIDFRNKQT
The experiment can be described thus: biochemical. Further details: Thermal shift (DSF, SYPRO Orange) Tm shift of recombinant kinase domains at 10 uM compound.

Description for BRPF1: (§1) S23 Thermal stability kinase selectivity. The assay was performed as previously described. 9,10 Briefly, recombinant protein kinase domains at a concentration of 2 μM were mixed with 10 μM compound in a buffer containing 20 mM HEPES, pH 7.5, and 500 mM NaCl. SYPRO Orange (5000×, Invitrogen) was added as a fluorescence probe (1 µl per mL). Subsequently, temperature-dependent protein unfolding profiles were measured using the QuantStudio™ 5 realtime PCR machine (Thermo Fisher). […] The temperature was raised with a step rate of 3°C per minute. Data points were analysed with the internal software (Thermal Shift SoftwareTM Version 1.4, Thermo Fisher) using the Boltzmann equation to determine the inflection point of the transition curve.
Description for MAP3K5: as §1

Regarding `CC(C)Oc1ccc2ccn(-c3cncc(-c4ccc(C(=O)O)cc4)n3)c2c1` [6c], the ΔTm at 10 µM on BRPF1 (read-out: 6c) is -1 °C; at MAP3K5 (read-out: 6c), 3 °C.

Take `COc1ccc(OC(C)C)cc1Nc1cncc(-c2ccc(C(=O)O)cc2)n1` [7c]: the figures for the ΔTm at 10 µM at BRPF1 (read-out: 7c) and on MAP3K5 (read-out: 7c) were 0 °C and 1 °C, respectively.

In the case of `CC(C)Nc1ccc2cnn(-c3cncc(-c4ccc(C(=O)O)cc4)n3)c2c1` [compound 2, 2], the ΔTm at 10 µM at BRPF1 (read-out: 2) stood at 2 °C; on MAP3K5 (read-out: 2), 5 °C.
